The nature of data set [1]: Microsomal stability assay, rat liver microsomes.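 Note: rat liver microsomes (0.25 mg/mL) with about 1 µM compound plus 1 mM NADPH, pH 7.4, 37 °C for 30 min, parent left measured by LC-MS/MS against 0 min.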 Background: Liver microsomes are vesicles of endoplasmic reticulum, rich in cytochrome P450 enzymes.
For data set [2], the system named is Aβ40 in conditioned medium of cells stably expressing Amyloid Precursor Protein (APP). Kind of data set: In vitro BACE cell-based assay (Aβ40 in conditioned medium, sandwich ELISA).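 Note: compounds added as a dilution series, secreted peptide quantified by europium time-resolved fluorescence readout, potency fitted from percent of control versus compound concentration.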 Conditions: Homo sapiens. On the technique in general: An ELISA detects its analyte on a solid surface through an enzyme-linked reagent.
A further data set addresses CYP2D6 (Homo sapiens, UniProt P10635). Kind of data set: CYP2D6 inhibition assay (bufuralol, pooled human liver microsomes).
The target of data set [3] is Beta Secretase enzyme (BACE) (Homo sapiens, UniProt P56817). Kind of data set: In vitro enzymatic BACE FRET (fluorescence resonance energy transfer) assay.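 Note: fluorescence read after 1 h with 50 nM quenched peptide substrate spanning the BACE cleavage site, in pH 4.2 acetate buffer containing 10% DMSO and nonionic detergent.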 It counts as biochemical.
Sequence of Beta Secretase enzyme (BACE) (P56817 46-501): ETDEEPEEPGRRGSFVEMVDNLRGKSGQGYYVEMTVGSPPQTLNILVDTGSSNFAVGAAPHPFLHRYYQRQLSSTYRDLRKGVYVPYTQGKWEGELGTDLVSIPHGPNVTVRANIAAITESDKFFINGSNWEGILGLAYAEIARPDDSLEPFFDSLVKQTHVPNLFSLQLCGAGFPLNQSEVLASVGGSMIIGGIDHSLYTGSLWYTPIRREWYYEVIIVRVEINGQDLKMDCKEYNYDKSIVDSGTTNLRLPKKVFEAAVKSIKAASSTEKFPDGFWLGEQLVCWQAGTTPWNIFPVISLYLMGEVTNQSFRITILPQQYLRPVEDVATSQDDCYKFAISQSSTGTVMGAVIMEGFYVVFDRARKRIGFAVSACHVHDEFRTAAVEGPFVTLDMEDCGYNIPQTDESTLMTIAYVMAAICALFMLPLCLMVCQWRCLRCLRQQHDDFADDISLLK
The nature of data set [4]: Microsomal stability assay, human liver microsomes.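 Note: pooled human liver microsomes at 0.25 mg/mL with 1 µM compound and NADPH at 37 °C, pH 7.4, for 30 min, unchanged parent quantified by LC-MS/MS against the 0 min sample.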
[5] abbreviates: HEK293, cell-based assay, HEK cells, IC50's in uM, read-out: HEK cell assay.
Setting [6] is: 2D6 IC50, CYP enzyme inhibition.
Where [7] appears, read: BACE enzyme assay, IC50's in uM, read-out: BACE1 FRET assay.
[8] abbreviates: HEK293, HEK cells, read-out: HEK cell assay (IC50).
Setting [9] is: read-out: BACE1 FRET assay (IC50).
Setting [10] is: 2D6 IC50 (uM), CYP enzyme inhibition.

The values below come from patent publication US8163909B2, “Substituted hydroxyethyl amine compounds as beta-secretase modulators and methods of use” (Amgen Inc., priority 2007, dated 2012).

Read-outs that look alike come from different tables or passages of the source.

Sequence of CYP2D6 (P10635 whole entry): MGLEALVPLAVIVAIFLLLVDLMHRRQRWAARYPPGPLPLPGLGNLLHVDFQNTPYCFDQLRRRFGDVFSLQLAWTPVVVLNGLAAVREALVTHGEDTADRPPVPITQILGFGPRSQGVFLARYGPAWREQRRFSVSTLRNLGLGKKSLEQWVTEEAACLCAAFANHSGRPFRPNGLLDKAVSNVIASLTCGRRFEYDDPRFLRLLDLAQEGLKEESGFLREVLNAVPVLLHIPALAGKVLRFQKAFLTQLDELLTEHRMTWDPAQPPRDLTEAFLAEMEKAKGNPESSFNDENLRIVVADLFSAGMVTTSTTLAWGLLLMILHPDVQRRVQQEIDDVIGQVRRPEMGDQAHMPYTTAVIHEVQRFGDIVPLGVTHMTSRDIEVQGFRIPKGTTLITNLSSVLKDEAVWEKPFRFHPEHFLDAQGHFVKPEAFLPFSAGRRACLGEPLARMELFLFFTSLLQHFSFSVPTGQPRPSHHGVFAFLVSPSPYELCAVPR

For the compound `COCC(=O)N[C@@H](Cc1cc(F)cc(F)c1)[C@H](O)CN[C@H]1CC2(CCC2)Oc2c1cc(CC(C)C)nc2-c1ccncc1` [compound 682], the “RLM” value in data set [1] (rat liver microsomes) was 113 µL/min/mg. Besides, the IC50 was determined as 0.011 µM in data set [2] (HEK293, HEK cell-based assay IC50, read-out: HEK cell assay); 1.1 µM against CYP2D6 (2D6 IC50 (uM), CYP2D6 inhibition); 0.009 µM in data set [3] (BACE enzyme assay IC50, read-out: BACE1 FRET assay). For the same compound, the “HLM” value in data set [4] (human liver microsomes) came out at 34 µL/min/mg.

With `COCC(=O)N[C@@H](Cc1cc(F)cc(-c2nccs2)c1)[C@H](O)CN[C@]1(C)CC2(CCC2)Oc2ncc(CC(C)(C)C)cc21` [compound 867], in data set [1] (rat liver microsomal data), the RLM was 119 µL/min/mg. For the same compound, the results for the IC50 (in data set [2] (setting [5]); at CYP2D6 (setting [6]); in data set [3] (setting [7])) were 1.15 µM, 0.7 µM and 1.21 µM, respectively. This compound yielded an HLM in data set [4] (human liver microsomal data) of 66 µL/min/mg.

The compound `CO[C@H](C)C(=O)N[C@@H](Cc1cccc(C#N)c1)[C@H](O)CN[C@H]1CC2(CCC2)Oc2c(-c3ccncc3)cc(CC(C)C)cc21` [compound 620] registered an RLM in data set [1] (rat liver microsomes) of 105 µL/min/mg. The IC50 in data set [2] (setting [8]) was found to be 0.005 µM; against CYP2D6 (2D6 IC50, CYP2D6 inhibition), 1.9 µM; in data set [3] (setting [9]) it was 0.01 µM. Moreover, in data set [4] (human liver microsomes), the HLM is 48 µL/min/mg.

`C#Cc1cc(C[C@H](NC(=O)CC)[C@H](O)CN[C@H]2CC3(CCC3)Oc3ncc(CC(C)(C)C)cc32)ccc1F` [compound 848] displayed an RLM in data set [1] (rat liver microsomal data) of 60 µL/min/mg. In addition, the results for the IC50 (in data set [2] (setting [5]); against CYP2D6 (setting [6]); in data set [3] (setting [7])) were 0.019 µM, 0.9 µM and 0.005 µM, respectively. In addition, the HLM in data set [4] (human liver microsomal data) is 36 µL/min/mg.

In data set [1] (rat liver microsomal data), `C#Cc1cc(C#C)cc(C[C@H](NC(=O)COC)[C@H](O)CN[C@H]2CC3(CCC3)Oc3ncc(CC(C)(C)C)cc32)c1` [compound 858] yielded an RLM of 88 µL/min/mg. The values for the IC50 (in data set [2] (setting [5]); at CYP2D6 (setting [6]); in data set [3] (setting [7])) were 0.147 µM, 1.1 µM and 0.005 µM, respectively. This compound also displayed an HLM in data set [4] (human liver microsomal data) of 90 µL/min/mg.

`C#Cc1cccc(C[C@H](NC(=O)[C@@H](C)OC)[C@H](O)CN[C@H]2CC3(CCC3)Oc3ncc(CC(C)(C)C)cc32)c1F` [compound 912]: the RLM in data set [1] (rat liver microsomal data) worked out at 60 µL/min/mg. Further, the IC50 in data set [2] (setting [5]) stood at 1.19 µM; against CYP2D6 (setting [6]), 6.3 µM; in data set [3] (setting [7]), 0.013 µM. This compound also registered an HLM in data set [4] (human liver microsomal data) of 35 µL/min/mg.

`CC(=O)N[C@@H](Cc1cccc(F)c1)[C@H](O)CN[C@H]1CC2(CCC2)Oc2c(-c3ccncc3)cc(CC(C)(C)C)cc21` [compound 592]: the RLM in data set [1] (rat liver microsomes) was determined as 73 µL/min/mg. For the same compound, the IC50 in data set [2] (setting [8]) turned out to be 0.004 µM; against CYP2D6 (2D6 IC50, CYP2D6 inhibition), 1.7 µM; in data set [3] (setting [9]), 0.01 µM. This compound also gave an HLM in data set [4] (human liver microsomes) of 14 µL/min/mg.

As to `CC(C)(C)Cc1cnc2c(c1)[C@@H](NC[C@@H](O)[C@H](Cc1ccc3c(c1)OCO3)NC(=O)C(C)(C)C)CC1(CCC1)O2` [compound 882], the RLM in data set [1] (rat liver microsomal data) was 103 µL/min/mg. In addition, the figures for the IC50 (in data set [2] (setting [5]); at CYP2D6 (setting [6]); in data set [3] (setting [7])) were 2.58 µM, 0.5 µM and 6.25 µM, respectively. For the same compound, the HLM in data set [4] (human liver microsomal data) is 40 µL/min/mg.

In data set [1] (rat liver microsomes), `CO[C@H](C)C(=O)N[C@@H](Cc1ccccc1)[C@H](O)CN[C@H]1CC2(CCC2)Oc2c(-c3ccncc3)cc(CC(C)C)cc21` [compound 604] yielded an RLM of 215 µL/min/mg. Also, the IC50 in data set [2] (setting [8]) is 0.013 µM; at CYP2D6 (2D6 IC50, CYP2D6 inhibition) it was 2.7 µM; in data set [3] (setting [9]), 0.018 µM. Besides, the HLM in data set [4] (human liver microsomes) amounted to 89 µL/min/mg.

The compound `CC(=O)N[C@@H](Cc1cccc(F)c1)[C@H](O)CN[C@H]1CC2(CCC2)Oc2c1cc(Cl)cc2-n1ccnc1` [compound 594] registered an RLM in data set [1] (rat liver microsomes) of 61 µL/min/mg. In addition, the IC50 in data set [2] (setting [8]) amounted to 0.077 µM; against CYP2D6 (2D6 IC50, CYP2D6 inhibition), 0.3 µM; in data set [3] (setting [9]), 0.158 µM. In data set [4] (human liver microsomes), the HLM was found to be 44 µL/min/mg.

In turn, `COCC(=O)N[C@@H](Cc1cccc(C(C)=O)c1)[C@H](O)CN[C@H]1CC2(CCC2)Oc2ncc(CC(C)(C)C)cc21` [compound 872] showed an RLM in data set [1] (rat liver microsomal data) of 278 µL/min/mg. In addition, the IC50 in data set [2] (setting [5]) came to 0.009 µM; against CYP2D6 (setting [6]), 5.7 µM; in data set [3] (setting [7]) it was 0.007 µM. This compound also came in with an HLM in data set [4] (human liver microsomal data) of 382 µL/min/mg.

`C#Cc1cccc(C[C@H](NC(=O)[C@@H]2CCCO2)[C@H](O)CN[C@H]2CC3(CCC3)Oc3ncc(CC(C)(C)C)cc32)c1F` [compound 913] returned an RLM in data set [1] (rat liver microsomal data) of 76 µL/min/mg. The values for the IC50 (in data set [2] (setting [5]); on CYP2D6 (setting [6]); in data set [3] (setting [7])) were 0.063 µM, 7.1 µM and 0.021 µM, respectively. The HLM in data set [4] (human liver microsomal data) was found to be 41 µL/min/mg.

The compound `COCC(=O)N[C@@H](Cc1cc(F)cc(F)c1)[C@H](O)CN[C@H]1CC2(CCC2)Oc2c(-c3nccn3C)cc(CC(C)C)cc21` [compound 630] showed an RLM in data set [1] (rat liver microsomes) of 220 µL/min/mg. Moreover, the IC50 is 0.003 µM in data set [2] (setting [8]); 4 µM against CYP2D6 (2D6 IC50, CYP2D6 inhibition); 0.021 µM in data set [3] (setting [9]). For the same compound, the HLM in data set [4] (human liver microsomes) worked out at 37 µL/min/mg.

In the case of `CC(C)(C)Cc1cnc2c(c1)[C@@H](NC[C@@H](O)[C@H](Cc1ccc(F)cc1)NC(=O)[C@@H]1CN(Cc3cncs3)CCO1)CC1(CCC1)O2` [compound 788], the “RLM” value in data set [1] (rat liver microsomal data) was found to be 157 µL/min/mg. Moreover, the IC50 in data set [2] (HEK293, HEK cell-based assay, IC50's in uM, read-out: HEK cell assay) is 0.013 µM; at CYP2D6 (setting [10]), 0.6 µM; in data set [3] (setting [7]), 0.016 µM. Further, in data set [4] (human liver microsomal data), the “HLM” value was determined as 267 µL/min/mg.

Consider `CO[C@H](C)C(=O)N[C@@H](Cc1cc(F)cc(F)c1)[C@H](O)CN[C@H]1CC2(CCC2)Oc2c(-c3ccncc3)cc(CC(C)(C)F)cc21` [compound 590], for which, in data set [1] (rat liver microsomes), the RLM came to 105 µL/min/mg. Further, the IC50 in data set [2] (setting [8]) amounted to 0.007 µM; against CYP2D6 (2D6 IC50, CYP2D6 inhibition), 0.6 µM; in data set [3] (setting [9]), 0.024 µM. The same compound returned an HLM in data set [4] (human liver microsomes) of 60 µL/min/mg.

Take `CO[C@H](C)C(=O)N[C@@H](Cc1cccc(F)c1)[C@H](O)CN[C@H]1CC2(CCC2)Oc2c1cc(CC(C)(C)C)nc2-c1ccncc1` [compound 533]: the “RLM” value in data set [1] (rat liver microsomal data) turned out to be 163 µL/min/mg. For the same compound, the IC50 in data set [2] (HEK293, HEK cells, read-out: HEK cell assay) is 0.044 µM; at CYP2D6 (setting [10]), 1.4 µM; in data set [3] (BACE enzyme assay, read-out: BACE1 FRET assay) it was 0.013 µM. Also, in data set [4] (human liver microsomal data), the “HLM” value was 29 µL/min/mg.

Compound `C#Cc1cccc(C[C@H](NC(=O)COC)[C@H](O)CN[C@H]2C[C@@]3(CCOC3)Oc3ncc(CC(C)(C)C)cc32)c1` [compound 869, N-((1S,2R)-3-(((3S,4′S)-6′-(2,2-dimethylpropyl)-3′,4,4′,5-tetrahydrospiro[furan-3,2′-pyrano[2,3-b]pyridin]-4′-yl)amino)-1-(3-ethynylbenzyl)-2-hydroxypropyl)-2-methoxyacetamide] showed an RLM in data set [1] (rat liver microsomal data) of 55 µL/min/mg. The IC50 is 0.01 µM in data set [2] (setting [5]), 9.5 µM against CYP2D6 (setting [6]) and 0.006 µM in data set [3] (setting [7]). In data set [4] (human liver microsomal data), this compound showed an HLM of 21 µL/min/mg.

The compound `CO[C@H](C)C(=O)N[C@@H](Cc1cc(F)cc(F)c1)[C@H](O)CN[C@H]1CC2(CCC2)Oc2c1cc(CC(C)C)cc2-n1ccnc1` [compound 461] gave an RLM in data set [1] (rat liver microsomal data) of 126 µL/min/mg. For the same compound, the IC50 was determined as 0.028 µM in data set [2] (HEK293, Table 2, HEK cells, read-out: HEK cell assay); 2.2 µM at CYP2D6 (setting [6]); 0.026 µM in data set [3] (Table 2, read-out: BACE1 FRET assay). This compound had an HLM in data set [4] (human liver microsomal data) of 28 µL/min/mg.

`COCC(=O)N[C@@H](Cc1cccc(C#N)c1)[C@H](O)CN[C@H]1CC2(CCC2)Oc2c(-c3ccncc3)cc(CC(C)C)cc21` [compound 619] returned an RLM in data set [1] (rat liver microsomes) of 85 µL/min/mg. The IC50 in data set [2] (setting [8]) was 0.006 µM; against CYP2D6 (2D6 IC50, CYP2D6 inhibition) it was 1.5 µM; in data set [3] (setting [9]), 0.012 µM. In addition, the HLM in data set [4] (human liver microsomes) came out at 35 µL/min/mg.
